Results published in DBAASP.
Converted amounts (≈) assume the structure as drawn. “And” between values parts separate entries of the source, which are not always exact repeats. Equal entries are not always repeated. Blank lines part the entries; values can stand above or below the molecule they belong to.

Legend:
Test in all cases: ≥ marks a high value that may be exact or a test limit, other limits are often not marked, values filed in µg/mL are converted to µM
Bacillus subtilis = tested on: Bacillus subtilis
Enterococcus faecalis = tested on: Enterococcus faecalis
Enterococcus faecium = tested on: Enterococcus faecium
[1] = tested on: Escherichia coli ATCC 25922
Klebsiella pneumoniae = tested on: Klebsiella pneumoniae
[2] = tested on: Pseudomonas aeruginosa PAO1
[3] = tested on: Staphylococcus aureus ATCC 43300
[4] = tested on: Staphylococcus epidermidis BCM0060
Streptococcus pneumoniae = tested on: Streptococcus pneumoniae
[5] = tested on: Acinetobacter baumannii ATCC 19606
[6] = tested on: Klebsiella pneumoniae ATCC 13883
[7] = tested on: Pseudomonas aeruginosa ATCC 27853
[8] = tested on: Staphylococcus aureus ATCC 29213
[9] = tested on: Staphylococcus haemolyticus
[10] = tested on: Staphylococcus lugdunensis
Staphylococcus warneri = tested on: Staphylococcus warneri
[11] = tested on: Aspergillus flavus KCTC 6905
[12] = tested on: Candida albicans CCARM 14001
[13] = tested on: Candida albicans CCARM 14004
[14] = tested on: Candida albicans CCARM 14007
[15] = tested on: Candida albicans CCARM 14020
[16] = tested on: Candida albicans KCTC 7270
[17] = tested on: Candida krusei CCARM 14017
[18] = tested on: Candida parapsilosis CCARM 14016
[19] = tested on: Colletotrichum gloeosporioides KCTC 6169
[20] = tested on: Fusarium graminearum KCTC 16656
[21] = tested on: Fusarium oxysporum KCTC 16909
[22] = tested on: Fusarium solani KCTC 6326
[23] = tested on: Fusarium verticillioides KCTC 6149
[24] = tested on: Trichoderma virens KCTC 16924
[25] = tested on: Trichoderma viride KCTC 16992
[26] = tested on: Trichophyton rubrum KCTC 6345
[27] = tested on: Bacillus subtilis KCTC 3068
[28] = tested on: Enterococcus faecium ATCC 51559
[29] = tested on: Pseudomonas aeruginosa CCARM 2095
[30] = tested on: Pseudomonas aeruginosa CCARM 2109
[31] = tested on: Pseudomonas aeruginosa KCTC 1637
[32] = tested on: Salmonella typhimurium KCTC 1926
[33] = tested on: Staphylococcus aureus CCARM 3089
[34] = tested on: Staphylococcus aureus CCARM 3090
[35] = tested on: Staphylococcus aureus CCARM 3095
[36] = tested on: Staphylococcus epidermidis KCTC 1917
[37] = tested on: Candida albicans ATCC 14053
[38] = tested on: Escherichia coli ATCC 11775
[39] = tested on: Micrococcus luteus ATCC 49732
[40] = tested on: Staphylococcus aureus ATCC 12600
[41] = tested on: Erwinia amylovora PMV 6076
[42] = tested on: Pseudomonas syringae pv. actinidiae Psa3700.1.1
[43] = tested on: Pseudomonas syringae pv. syringae EPS 94
[44] = tested on: Xanthomonas arboricola pv. pruni CFBP 5563
[45] = tested on: Xanthomonas campestris pv. Vesicatoria 2133-2
[46] = tested on: Xanthomonas fragariae Xf349-9A

MIC (Bacillus subtilis): 1.33 µM (≈ 2.7 µg/mL) | MIC (Enterococcus faecalis): 1 µM (≈ 2.03 µg/mL) | MIC (Enterococcus faecium): 0.3 µM (≈ 0.609 µg/mL) | MIC [1]: 1 µM and 3 µM | MIC (Klebsiella pneumoniae): 4.7 µM (≈ 9.55 µg/mL) | MIC [2]: 1.7 µM (≈ 3.45 µg/mL) | MIC [3]: 1.3 µM and 2.7 µM | MIC [4]: 2.3 µM (≈ 4.67 µg/mL) | MIC (Streptococcus pneumoniae): 9.3 µM (≈ 18.9 µg/mL)
SMILES: CC[C@H](C)[C@H](NC(=O)[C@H](CCCCN)NC(=O)[C@H](Cc1c[nH]c2ccccc12)NC(=O)[C@H](CCCN=C(N)N)NC(=O)[C@H](CCCN=C(N)N)NC(=O)CNC(=O)[C@H](Cc1cnc[nH]1)NC(=O)CNC(=O)CN)C(=O)N[C@H](C(=O)N[C@H](C(=O)N[C@H](C(=O)N[C@@H](CCCN=C(N)N)C(=O)N[C@@H](Cc1c[nH]c2ccccc12)C(=O)N[C@@H](CCCN=C(N)N)C(=O)N[C@@H](CCCN=C(N)N)C(N)=O)[C@@H](C)CC)C(C)C)C(C)C [GGHGRRWKIVVIRWRR]

MIC [5]: 8 µM (≈ 20.1 µg/mL) | MIC [1]: 11.3 µM (≈ 28.4 µg/mL) | MIC [6]: 8 µM (≈ 20.1 µg/mL) | MIC [7]: 8 µM (≈ 20.1 µg/mL) | MIC [8]: 1 µM (≈ 2.51 µg/mL) | MIC [10]: 24.9 µM (≈ 62.5 µg/mL) | MIC (Staphylococcus warneri): 12.5 µM (≈ 31.3 µg/mL)
SMILES: CC(C)C[C@H](NC(=O)CN)C(=O)N[C@@H](CC(C)C)C(=O)N[C@@H](CCCN=C(N)N)C(=O)N[C@@H](C)C(=O)N[C@@H](CO)C(=O)N[C@@H](CO)C(=O)N[C@@H](CCCCN)C(=O)N[C@@H](Cc1c[nH]c2ccccc12)C(=O)NCC(=O)N[C@@H](CCCN=C(N)N)C(=O)N[C@@H](CCCCN)C(=O)N[C@@H](Cc1ccc(O)cc1)C(=O)N[C@@H](Cc1ccc(O)cc1)C(=O)N[C@H](C(=O)N[C@@H](CC(=O)O)C(=O)N[C@@H](CC(C)C)C(=O)N[C@@H](C)C(=O)NCC(=O)N[C@@H](CS)C(=O)N[C@@H](C)C(=O)N[C@@H](CCCCN)C(=O)N[C@@H](C)C(=O)O)C(C)C [GLLRASSKWGRKYYVDLAGCAKA]
MIC [9]: 24.9 µM (≈ 62.5 µg/mL)

MIC [27]: 4 µM (≈ 9.94 µg/mL) | MIC [28]: 2 µM (≈ 4.97 µg/mL) | MIC [29]: 4 µM (≈ 9.94 µg/mL) | MIC [30]: 4 µM (≈ 9.94 µg/mL) | MIC [31]: 2 µM (≈ 4.97 µg/mL) | MIC [32]: 1 µM (≈ 2.49 µg/mL) | MIC [33]: 2 µM (≈ 4.97 µg/mL) | MIC [34]: 2 µM (≈ 4.97 µg/mL) | MIC [35]: 2 µM (≈ 4.97 µg/mL) | MIC [36]: 2 µM (≈ 4.97 µg/mL)
SMILES: C[C@H](NC(=O)[C@H](CCCCN)NC(=O)[C@H](Cc1ccc(O)cc1)NC(=O)[C@H](Cc1c[nH]c2ccccc12)NC(=O)[C@H](CCCCN)NC(=O)[C@H](CCCCN)NC(=O)[C@H](Cc1ccccc1)NC(=O)[C@H](CCCN=C(N)N)NC(=O)[C@@H](N)CCCCN)C(=O)N[C@@H](Cc1c[nH]c2ccccc12)C(=O)N[C@@H](CCCN=C(N)N)C(=O)N[C@@H](CCCCN)C(=O)N[C@@H](CCCCN)C(=O)N[C@@H](Cc1c[nH]c2ccccc12)C(=O)N[C@@H](CCCN=C(N)N)C(=O)N[C@@H](CCCCN)C(=O)N[C@@H](Cc1ccc(O)cc1)C(N)=O [KRFKKWYKAWRKKWRKY]

The remaining lines, values behind:

SMILES: NCCCC[C@H](NC(=O)[C@H](CCCCN)NC(=O)[C@H](Cc1cnc[nH]1)NC(=O)[C@H](CCCCN)NC(=O)[C@H](CCCCN)NC(=O)[C@@H](N)Cc1cnc[nH]1)C(N)=O [HKKHKK]
MIC [11]: ≥ 64 µM | MIC [12]: ≥ 64 µM | MIC [13]: ≥ 64 µM | MIC [14]: ≥ 64 µM | MIC [15]: ≥ 64 µM | MIC [16]: ≥ 64 µM | MIC [17]: ≥ 64 µM | MIC [18]: ≥ 64 µM | MIC [19]: 16 µM (≈ 12.9 µg/mL) | MIC [20]: ≥ 64 µM | MIC [21]: ≥ 64 µM | MIC [22]: ≥ 32 µM | MIC [23]: ≥ 32 µM | MIC [24]: ≥ 32 µM | MIC [25]: ≥ 64 µM | MIC [26]: ≥ 64 µM

SMILES: CC(C)[C@H](NC(=O)[C@H](C)NC(=O)[C@@H](NC(=O)CNC(=O)[C@@H]1CCCN1)[C@@H](C)O)C(=O)N[C@@H](Cc1ccccc1)C(=O)N[C@@H](C)C(=O)O [PGTAVFA]
MIC [37]: ≥ 1010 µM | MIC [38]: ≥ 1010 µM | MIC [39]: ≥ 1010 µM | MIC [40]: ≥ 1010 µM

SMILES: CC[C@H](C)[C@H](NC(=O)CNC(=O)[C@@H](N)Cc1ccc(O)cc1)C(=O)N[C@@H](Cc1cnc[nH]1)C(=O)N[C@H](C(=O)N[C@@H](Cc1cnc[nH]1)C(N)=O)[C@@H](C)O [YGIHTH]
MIC [41]: ≥ 50 µM | MIC [42]: ≥ 50 µM | MIC [43]: ≥ 50 µM | MIC [44]: ≥ 50 µM | MIC [45]: ≥ 50 µM | MIC [46]: ≥ 50 µM
